From patent US7202261B2, “Calcilytic compounds” (NPS Pharmaceuticals, Inc., priority 1996, dated 2007) come the findings set out here.

Where a name gives a salt, the structure may show the parent alone.

The target of this test is T1, human calcium receptor (Homo sapiens, UniProt P41180).
T1 construct: expressed in transfected cells
T1 sequence (P41180 20-1078): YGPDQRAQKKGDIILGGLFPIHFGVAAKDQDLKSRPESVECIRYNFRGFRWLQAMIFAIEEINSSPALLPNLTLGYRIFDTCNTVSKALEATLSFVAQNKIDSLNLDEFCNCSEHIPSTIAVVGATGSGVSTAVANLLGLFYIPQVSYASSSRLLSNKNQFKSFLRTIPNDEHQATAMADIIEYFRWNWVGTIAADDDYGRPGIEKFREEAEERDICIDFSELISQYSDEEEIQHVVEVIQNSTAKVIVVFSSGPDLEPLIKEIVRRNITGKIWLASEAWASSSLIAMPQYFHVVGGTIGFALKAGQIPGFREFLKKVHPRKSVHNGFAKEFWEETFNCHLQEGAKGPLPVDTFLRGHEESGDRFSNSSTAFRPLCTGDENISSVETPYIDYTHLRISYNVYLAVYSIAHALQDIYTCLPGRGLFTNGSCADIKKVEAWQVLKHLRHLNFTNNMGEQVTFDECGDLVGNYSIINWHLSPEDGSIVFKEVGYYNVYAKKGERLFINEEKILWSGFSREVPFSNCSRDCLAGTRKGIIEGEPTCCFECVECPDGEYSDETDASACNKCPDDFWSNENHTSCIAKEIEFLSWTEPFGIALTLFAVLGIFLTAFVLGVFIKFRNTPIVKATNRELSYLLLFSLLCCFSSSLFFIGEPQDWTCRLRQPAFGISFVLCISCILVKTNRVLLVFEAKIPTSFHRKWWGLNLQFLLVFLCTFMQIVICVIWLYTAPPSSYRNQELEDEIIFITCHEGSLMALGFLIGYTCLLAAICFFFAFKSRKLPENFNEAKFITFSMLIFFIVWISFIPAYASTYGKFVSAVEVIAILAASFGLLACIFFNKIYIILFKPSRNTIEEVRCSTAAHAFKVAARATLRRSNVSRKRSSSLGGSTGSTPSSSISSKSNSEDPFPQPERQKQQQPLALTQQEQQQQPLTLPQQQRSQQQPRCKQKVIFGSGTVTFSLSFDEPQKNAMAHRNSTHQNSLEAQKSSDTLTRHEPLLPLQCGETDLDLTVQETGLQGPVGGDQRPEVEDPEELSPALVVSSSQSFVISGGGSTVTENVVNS
The test can be described thus: Calcium Receptor Inhibitor Assay. The format is cell-based. Conditions: HEK 293 4.0–7 cells stably expressing the human calcium receptor; fluo-3; read-out: IC50 for blocking increases of intracellular Ca2+ elicited by extracellular Ca2+. In short, it runs like this:
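Intracellular Ca^2+ measured with fluo-3 at 37° C in stirred cell suspension. Buffer held 1 mM CaCl2 and 1 mg/mL D-glucose. Compound or vehicle added 90 seconds before extracellular Ca^2+ was raised from 1 to 2 mM, and calcilytic activity scored as concentration-dependent block of the intracellular Ca^2+ rise.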

`COc1ccc(CC(C)(C)NC[C@@H](O)COc2ccccc2)cc1` (single isomer, unassigned) [Compound 32, (R) or (S)—N-(2-Hydroxy-3-phenoxypropyl)-1,1-dimethyl-2-(4-methoxyphenyl)ethylamine Hydrochloride]: the IC50 is less than 10 µM.
Consider `COc1ccc(CC(C)(C)NCC(O)COc2cccc(OC)c2)cc1` (centres unmarked) [Compound 38, N-[2-Hydroxy-3-(3-methoxyphenoxy)propyl]-1,1-dimethyl-2-(4-methoxyphenyl)ethylamine Hydrochloride], for which the IC50 was less than 1 µM.

A word on the IC50: it is the point on the concentration scale where inhibition reaches its midpoint.
